Entries after “also recorded” stand apart in the source; their conditions may differ. No end group written: not given here. K(rhodamine) = not defined here; code X = not defined here
test system: mouse peritoneal macrophages; test: In vitro fluorescent labeling of mouse peritoneal macrophages at different incubation times; assay type: cell-based; details: incubating only for 10 min
Procedure: Referring to Example 9, using the same treatment process, the macrophages from mouse abdominal cavity were obtained. After culturing for 6 days, the cultured peritoneal cells were labeled with KS24 fluorescent probes for different incubation times. Then the cells were observed under a fluorescence microscope (20×, light source 20%, exposure 200 ms, gain 5).
Nucblue (blue fluorescence) was further used for nuclear staining. In each of FIGS. 14A, 14B, 14C, and 14D, i) is an image labeled with the KS24 fluorescent probe (shown in red fluorescence in the original fluorescence color image), and ii) is an image obtained by nuclear staining with Nucblue (shown in blue fluorescence in the original fluorescence color image), and iii) is a merged image of i) and ii).

Substance | fluorescence detection with microscope
X-EQPDPGAVAAAAILRAILEVLQS ({code X}-EQPDPGAVAAAAILRAILEVLQS; reading uncertain; also: reporter type not given here, printed as X-EQPDPGAVAAAAILRAILEVLQS; listed as Homo sapiens) [KS24, X = reporter or cysteine/lysine + reporter at N-terminal] | can be even detected

same assay, conditions: incubation 10, 20, 40 and 80 min; cells cultured 6 days

Substance | labeled fluorescence of the cells versus incubation time
X-EQPDPGAVAAAAILRAILEVLQS ({code X}-EQPDPGAVAAAAILRAILEVLQS; reading uncertain; also: reporter type not given here, printed as X-EQPDPGAVAAAAILRAILEVLQS; listed as Homo sapiens) [KS24, X = reporter or cysteine/lysine + reporter at N-terminal] | gradually becomes stronger with the incubation time

test system: mouse peritoneal macrophages; test: In vivo fluorescent labeling of macrophages in a mouse abdominal cavity; details: in vivo probe labeling, then F4/80 antibody double-stain of extracted peritoneal cells
Procedure: Dilute 300 μL of 50 μM AK9 fluorescent probe solution with serum-free DMEM incomplete medium to obtain 1 mL of solution, then inject into the abdominal cavities of 5-8 week old Kunming mice. After 4 hours, inject 5 mL of 1×PBS, and massage. After 10 minutes, sacrifice the mice by cervical vertebra dislocation. Cut the abdominal cavity skin of the mice, pierce the abdominal wall muscle by syringe, and extract the fluid in the abdominal cavity of the mice. Centrifuge the extracted peritoneal fluid at 1000 rpm for 5 min, wash twice with 1×PBS. Double-stain an appropriate number of cells with Alexa Fluor 488 anti-mouse F4/80 antibody (Biolegend). Add the stained cells to a 96-well plate and stain with a nuclear dye Nucblue (Invitrogen). Observe under EVOS FL Auto fluorescence microscope (Life Technologies, 20×, light source 50%, exposure 200 ms, gain 10) after the suspended cells were settled down at the bottom of the plate.
Table 1 lists probes, which contain the polypeptide fragments from the C-terminal fragments of Triokinases/FMN cyclases of different species and were prepared by a similar process as described in Examples 1 and 2, and in vivo imaging results of mouse peritoneal macrophages using these probes.

Substance | labeling on the same cells, probe and F4/80 antibody
AILEVLQS-Y (AILEVLQS-{K(rhodamine)}; reading uncertain) [AK9, Human Triokinase/FMN cyclase C-terminal fragment; Y is lysine + rhodamine fluorescent labeling group on the lysine side chain] | labeled on the same cells

same assay, conditions: probe injected into abdominal cavity, cells extracted after 4 hours, fluorescence microscope

Substance | in vivo labeling / recognition of mouse peritoneal macrophages by the fluorescent probe
LQPDPGAVAAAAVLRAVLEGLQG-Y (LQPDPGAVAAAAVLRAVLEGLQGY; also: reporter type not given here; listed as Gallus gallus) [LK24, Y = reporter or cysteine/lysine + reporter] | can effectively recognize macrophages in vivo; also recorded: can also be labeled
LRAILEVLQS-Y (LRAILEVLQSY; also: reporter type not given here; listed as Homo sapiens) [LK11, Y = reporter or cysteine/lysine + reporter] | can effectively recognize macrophages in vivo; also recorded: can be labeled
X-EQPDPSAVAAAAILRAILEVLQG (not fully specified (N-terminus); printed as X-EQPDPSAVAAAAILRAILEVLQG; also: N-terminal reporter, not given here) [KESG24, X = reporter or cysteine/lysine + reporter] | can be labeled
X-EQPDPGAVAAAAILRAILEVLQS ({code X}-EQPDPGAVAAAAILRAILEVLQS; reading uncertain; also: reporter type not given here, printed as X-EQPDPGAVAAAAILRAILEVLQS; listed as Homo sapiens) [KS24, X = reporter or cysteine/lysine + reporter at N-terminal] | can effectively recognize macrophages in vivo; also recorded: can be labeled
AVLEVLQG-Y (AVLEVLQGY; also: reporter type not given here) [Hx-AVGK9, Y = reporter or cysteine/lysine + reporter] | can be labeled
X-TKNMEAGAGRASYISSARLEQPDPGAVAAAAILRAILEVLQS (not fully specified (N-terminus); listed as Homo sapiens) [TS42] | can effectively recognize macrophages in vivo; also recorded: can be labeled
VLRAVLEVLQG-Y (VLRAVLEVLQGY; also: reporter type not given here) [Hx-VVGK12, Y = reporter or cysteine/lysine + reporter] | can be labeled
X-DQPDPGAVAAAAIFRAILEVLQTKAA ({code X}-DQPDPGAVAAAAIFRAILEVLQTKAA; reading uncertain; also: reporter type not given here, printed as X-DQPDPGAVAAAAIFRAILEVLQTKAA; listed as Rattus norvegicus) [r-KA27, X = reporter or cysteine/lysine + reporter] | can effectively recognize macrophages in vivo; also recorded: can be labeled
AAILRAILEVLQS-Y (AAILRAILEVLQSY; also: C-terminal Y: reporter or Cys/Lys + reporter (rhodamine or FITC), not given here; listed as Homo sapiens) [AK14, Y = reporter or cysteine/lysine + reporter] | can effectively recognize macrophages in vivo; also recorded: can be labeled
LQPDPSAVAAAAVLRAVLEVLQG-Y (LQPDPSAVAAAAVLRAVLEVLQGY; also: reporter type not given here) [Cx-LK24, Y = reporter or cysteine/lysine + reporter] | can be labeled
PGAVAAAAILRAILEVLQS-Y (PGAVAAAAILRAILEVLQSY; also: reporter type not given here; listed as Homo sapiens) [PK20, Y = reporter or cysteine/lysine + reporter] | can effectively recognize macrophages in vivo; also recorded: can be labeled
X-DQPDPGAVAAAAILRAILEVLQSQGA ({code X}-DQPDPGAVAAAAILRAILEVLQSQGA; reading uncertain; also: reporter type not given here, printed as X-DQPDPGAVAAAAILRAILEVLQSQGA; listed as Sus scrofa) [b-KA27, X = reporter or cysteine/lysine + reporter] | can effectively recognize macrophages in vivo; also recorded: can be labeled
AILEVLQS-Y (AILEVLQS-{K(rhodamine)}; reading uncertain) [AK9, Human Triokinase/FMN cyclase C-terminal fragment; Y is lysine + rhodamine fluorescent labeling group on the lysine side chain] | can effectively recognize macrophages in vivo
ILRAILEVLQS-Y (ILRAILEVLQSY; also: reporter type not given here; listed as Homo sapiens) [IK12, Y = reporter or cysteine/lysine + reporter] | can effectively recognize macrophages in vivo; also recorded: can be labeled
X-DQPDPGAVAAAAILRTILEVLQSQGV ({code X}-DQPDPGAVAAAAILRTILEVLQSQGV; reading uncertain; also: reporter type not given here, printed as X-DQPDPGAVAAAAILRTILEVLQSQGV; listed as Canis lupus) [d-KV27, X = reporter or cysteine/lysine + reporter] | can effectively recognize macrophages in vivo; also recorded: can be labeled

From US12031986B2, “Polypeptide for targeting recognition of immune cells and application thereof” (KEYANGLE LIFE TECHNOLOGY CO., LTD., priority 2019, dated 2024)
